Assay results taken from patent US6479434B1, “Composition and method for treating plants with exogenous chemicals” (Monsanto Technology LLC, priority 1996, dated 2002).

Experiments:
Format in all cases: in vivo
[1] = tested on: Japanese millet (Echinochloa crus-galli, ECHCF); assay: Example 52 greenhouse herbicidal inhibition, acifluorfen sodium compositions (Table 52); conditions: evaluated 10 days after application
Text: (§1) Seeds of the plant species indicated were planted in 85 mm square pots in a soil mix which was previously steam sterilized and prefertilized with a 13-13-14 NPK slow release fertilizer at a rate of 3.6 kg/m^3. The pots were placed in a greenhouse with sub-irrigation. About one week after emergence, seedlings were thinned as needed, including removal of any unhealthy or abnormal plants, to create a uniform series of test pots.
(§2) The plants were maintained for the duration of the test in the greenhouse where they received a minimum of 14 hours of light per day. If natural light was insufficient to achieve the daily requirement, artificial light with an intensity of approximately 475 microeinsteins was used to make up the difference. Exposure temperatures were not precisely controlled but averaged about 27° C. during the day and about 18° C. during the night. Plants were sub-irrigated throughout the test to ensure adequate soil moisture levels.
(§3) A set of pots was left untreated as a reference against which effects of the treatments could later be evaluated.
(§4) Application of glyphosate compositions was made by spraying with a track sprayer fitted with a 9501E nozzle calibrated to deliver a spray volume of 93 liters per hectare (l/ha) at a pressure of 166 kilopascals (kPa). After treatment, pots were returned to the greenhouse until ready for evaluation.
(§5) For evaluation of herbicidal effectiveness, all plants in the test were examined by a single practiced technician, who recorded percent inhibition, a visual measurement of the effectiveness of each treatment by comparison with untreated plants.
(§6) Velvetleaf (Abutilon theophrasti, ABUTH), Japanese millet (Echinochloa crus-galli, ECHCF) and prickly sida (Sida spinosa, SIDSP) plants were grown and treated by the standard procedures given above. Applications of spray compositions were made 15 days after planting ABUTH, 9 days after planting ECHCF and 22 days after planting SIDSP. Evaluation of herbicidal inhibition was done 10 days after application.

[2] = tested on: Prickly sida (Sida spinosa, SIDSP); assay: as above; conditions: evaluated 10 days after application
Text: as §1, §2, §3, §4, §5, §6

[3] = tested on: Velvetleaf (Abutilon theophrasti, ABUTH); assay: as above; conditions: evaluated 10 days after application
Text: as §1, §2, §3, §4, §5, §6

[4] = tested on: Japanese millet (Echinochloa crus-galli, ECHCF); assay: Example 53 greenhouse herbicidal inhibition, asulam compositions (Table 53); conditions: asulam rate 200 g a.i./ha; evaluated 14 days after application
Text: as §1
(§7) The plants were maintained for the duration of the test in the greenhouse where they received a minimum of 14 hours of light per day. If natural light was insufficient to achieve the daily requirement, artificial light with an intensity of approximately 475 microeinsteins was used to make up the difference. […]
as §3, §4
(§8) For evaluation of herbicidal effectiveness, all plants in the test were examined by a single practiced technician, who recorded percent inhibition, a visual measurement of the effectiveness of each treatment by comparison with untreated plants. […]

[5] = tested on: Prickly sida (Sida spinosa, SIDSP); assay: as above; conditions: asulam rate 200 g a.i./ha; evaluated 14 days after application
Text: as §1, §7, §3, §4, §8

[6] = tested on: Japanese millet (Echinochloa crus-galli, ECHCF); assay: Example 54 greenhouse herbicidal inhibition, dicamba sodium compositions (Table 54); conditions: evaluated 17 days after application
Text: as §1, §2, §3, §4, §5
(§9) Velvetleaf (Abutilon theophrasti, ABUTH), Japanese millet (Echinochloa crus-galli, ECHCF) and prickly sida (Sida spinosa, SIDSP) plants were grown and treated by the standard procedures given above. Applications of spray compositions were made 14 days after planting ABUTH, 8 days after planting ECHCF and 21 days after planting SIDSP. Evaluation of herbicidal inhibition was done 17 days after application.

[7] = tested on: Prickly sida (Sida spinosa, SIDSP); assay: as above; conditions: evaluated 17 days after application
Text: as §1, §2, §3, §4, §5, §9

[8] = tested on: Velvetleaf (Abutilon theophrasti, ABUTH); assay: as above; conditions: evaluated 17 days after application
Text: as §1, §2, §3, §4, §5, §9

[9] = tested on: Japanese millet (Echinochloa crus-galli, ECHCF); assay: Example 57 greenhouse herbicidal inhibition, fluazifop-p-butyl compositions (Table 57); conditions: fluazifop-p rate 5 g a.i./ha; evaluation 10 days after application
Text: as §1, §2, §3
[…] After treatment, pots were returned to the greenhouse until ready for evaluation.
as §8

[10] = tested on: Japanese millet (Echinochloa crus-galli, ECHCF); assay: Example 51 greenhouse herbicidal inhibition, paraquat dichloride compositions (Table 51); conditions: evaluated 12 days after application
Text: as §1, §2, §3, §4, §5
(§10) Velvetleaf (Abutilon theophrasti, ABUTH), Japanese millet (Echinochloa crus-galli, ECHCF) and prickly sida (Sida spinosa, SIDSP) plants were grown and treated by the standard procedures given above. Applications of spray compositions were made 14 days after planting ABUTH, 8 days after planting ECHCF and 21 days after planting SIDSP. Evaluation of herbicidal inhibition was done 12 days after application.

[11] = tested on: Prickly sida (Sida spinosa, SIDSP); assay: as above; conditions: evaluated 12 days after application
Text: as §1, §2, §3, §4, §5, §10

[12] = tested on: Velvetleaf (Abutilon theophrasti, ABUTH); assay: as above; conditions: evaluated 12 days after application
Text: as §1, §2, §3, §4, §5, §10

`O=C(O)c1cc(Oc2ccc(C(F)(F)F)cc2Cl)ccc1[N+](=O)[O-]` [Acifluorfen] was tested, and the “% Inhibition ECHCF” value ([1]; acifluorfen rate 25 g a.i./ha) was 2%, the “% Inhibition ECHCF” value ([1]; acifluorfen rate 50 g a.i./ha) was 7% and the “% Inhibition ECHCF” value ([1]; acifluorfen rate 100 g a.i./ha) was 18%. For the same compound, the “% Inhibition ECHCF” value ([1]; acifluorfen rate 200 g a.i./ha) was 35%, the “% Inhibition SIDSP” value ([2]; acifluorfen rate 25 g a.i./ha) was 15% and the “% Inhibition SIDSP” value ([2]; acifluorfen rate 50 g a.i./ha) was 17%. The “% Inhibition SIDSP” value ([2]; acifluorfen rate 100 g a.i./ha) was 35%, the “% Inhibition SIDSP” value ([2]; acifluorfen rate 200 g a.i./ha) was 40% and the “% Inhibition ABUTH” value ([3]; acifluorfen rate 25 g a.i./ha) was 20%. For the same compound, the “% Inhibition ABUTH” value ([3]; acifluorfen rate 50 g a.i./ha) was 32%, the “% Inhibition ABUTH” value ([3]; acifluorfen rate 100 g a.i./ha) was 52% and the “% Inhibition ABUTH” value ([3]; acifluorfen rate 200 g a.i./ha) was 62%.
`COC(=O)NS(=O)(=O)c1ccc(N)cc1` [Asulam] was tested, and the “% Inhibition ECHCF” value [4] was 12% and the “% Inhibition SIDSP” value [5] was 0%.
For `COc1c(Cl)ccc(Cl)c1C(=O)O` [Dicamba], the “% Inhibition ECHCF” value ([6]; dicamba rate 25 g a.i./ha) was 0%, the “% Inhibition ECHCF” value ([6]; dicamba rate 50 g a.i./ha) was 0% and the “% Inhibition ECHCF” value ([6]; dicamba rate 100 g a.i./ha) was 0%. For the same compound, the “% Inhibition ECHCF” value ([6]; dicamba rate 200 g a.i./ha) was 5%, the “% Inhibition SDSP” value ([7]; dicamba rate 25 g a.i./ha) was 30% and the “% Inhibition SDSP” value ([7]; dicamba rate 50 g a.i./ha) was 40%. For the same compound, the “% Inhibition SDSP” value ([7]; dicamba rate 100 g a.i./ha) was 50%, the “% Inhibition SDSP” value ([7]; dicamba rate 200 g a.i./ha) was 58% and the “% Inhibition ABUTH” value ([8]; dicamba rate 25 g a.i./ha) was 47%. For the same compound, the “% Inhibition ABUTH” value ([8]; dicamba rate 50 g a.i./ha) was 63%, the “% Inhibition ABUTH” value ([8]; dicamba rate 100 g a.i./ha) was 82% and the “% Inhibition ABUTH” value ([8]; dicamba rate 200 g a.i./ha) was 93%.
`CCCCOC(=O)[C@@H](C)Oc1ccc(Oc2ccc(C(F)(F)F)cn2)cc1` [Fluazifop-p-butyl (technical)] was tested, and the “% Inhibition ECHCF” value [9] was 3%.
For `C[n+]1ccc(-c2cc[n+](C)cc2)cc1` [Paraquat dichloride], the “% Inhibition ECHCF” value ([10]; paraquat rate 25 g a.i./ha) was 83%, the “% Inhibition ECHCF” value ([10]; paraquat rate 50 g a.i./ha) was 78% and the “% Inhibition ECHCF” value ([10]; paraquat rate 100 g a.i./ha) was 84%. For the same compound, the “% Inhibition ECHCF” value ([10]; paraquat rate 200 g a.i./ha) was 95%, the “% Inhibition SIDSP” value ([11]; paraquat rate 25 g a.i./ha) was 55% and the “% Inhibition SIDSP” value ([11]; paraquat rate 50 g a.i./ha) was 60%. The “% Inhibition SIDSP” value ([11]; paraquat rate 100 g a.i./ha) was 69%, the “% Inhibition SIDSP” value ([11]; paraquat rate 200 g a.i./ha) was 99% and the “% Inhibition ABUTH” value ([12]; paraquat rate 25 g a.i./ha) was 50%. For the same compound, the “% Inhibition ABUTH” value ([12]; paraquat rate 50 g a.i./ha) was 57%, the “% Inhibition ABUTH” value ([12]; paraquat rate 100 g a.i./ha) was 73% and the “% Inhibition ABUTH” value ([12]; paraquat rate 200 g a.i./ha) was 85%.
